Measurements from patent US8697739B2, “Bicyclic acetyl-CoA carboxylase inhibitors and uses thereof” (Novartis AG, priority 2010, dated 2014).
pIC50: −log10 of the molar value.

These molecules were tested against T1, human acetyl-CoA carboxylase 2 (ACC2) (Homo sapiens, UniProt O00763) (assay: Acetyl-CoA carboxylase enzyme assay (malonyl-CoA formation by LC/MS/MS)). Conditions: recombinant human ACC2 (aa 144-2458); read-out: IC50 ACC2.
T1 construct: The cDNA encoding amino acids 144 to 2458 of human acetyl-CoA carboxylase 2; made in house; host or cells: Sf9 insect cells (baculovirus, pFastBac1)
Type: biochemical
Summary of the method: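 Malonyl-CoA formation was read by LC/MS/MS MRM against a [13C3]-malonyl-CoA internal standard, after acetic acid quench. The enzyme was baculovirus/Sf9-expressed human ACC2 residues 144–2458, given 15 minutes room-temperature compound preincubation in HEPES pH 7.5 buffer with MgCl2, citrate and DTT. Substrate solution held 50 μM acetyl-CoA, 120 μM ATP and 2 mM KHCO3.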

T1 sequence (O00763 144-2458): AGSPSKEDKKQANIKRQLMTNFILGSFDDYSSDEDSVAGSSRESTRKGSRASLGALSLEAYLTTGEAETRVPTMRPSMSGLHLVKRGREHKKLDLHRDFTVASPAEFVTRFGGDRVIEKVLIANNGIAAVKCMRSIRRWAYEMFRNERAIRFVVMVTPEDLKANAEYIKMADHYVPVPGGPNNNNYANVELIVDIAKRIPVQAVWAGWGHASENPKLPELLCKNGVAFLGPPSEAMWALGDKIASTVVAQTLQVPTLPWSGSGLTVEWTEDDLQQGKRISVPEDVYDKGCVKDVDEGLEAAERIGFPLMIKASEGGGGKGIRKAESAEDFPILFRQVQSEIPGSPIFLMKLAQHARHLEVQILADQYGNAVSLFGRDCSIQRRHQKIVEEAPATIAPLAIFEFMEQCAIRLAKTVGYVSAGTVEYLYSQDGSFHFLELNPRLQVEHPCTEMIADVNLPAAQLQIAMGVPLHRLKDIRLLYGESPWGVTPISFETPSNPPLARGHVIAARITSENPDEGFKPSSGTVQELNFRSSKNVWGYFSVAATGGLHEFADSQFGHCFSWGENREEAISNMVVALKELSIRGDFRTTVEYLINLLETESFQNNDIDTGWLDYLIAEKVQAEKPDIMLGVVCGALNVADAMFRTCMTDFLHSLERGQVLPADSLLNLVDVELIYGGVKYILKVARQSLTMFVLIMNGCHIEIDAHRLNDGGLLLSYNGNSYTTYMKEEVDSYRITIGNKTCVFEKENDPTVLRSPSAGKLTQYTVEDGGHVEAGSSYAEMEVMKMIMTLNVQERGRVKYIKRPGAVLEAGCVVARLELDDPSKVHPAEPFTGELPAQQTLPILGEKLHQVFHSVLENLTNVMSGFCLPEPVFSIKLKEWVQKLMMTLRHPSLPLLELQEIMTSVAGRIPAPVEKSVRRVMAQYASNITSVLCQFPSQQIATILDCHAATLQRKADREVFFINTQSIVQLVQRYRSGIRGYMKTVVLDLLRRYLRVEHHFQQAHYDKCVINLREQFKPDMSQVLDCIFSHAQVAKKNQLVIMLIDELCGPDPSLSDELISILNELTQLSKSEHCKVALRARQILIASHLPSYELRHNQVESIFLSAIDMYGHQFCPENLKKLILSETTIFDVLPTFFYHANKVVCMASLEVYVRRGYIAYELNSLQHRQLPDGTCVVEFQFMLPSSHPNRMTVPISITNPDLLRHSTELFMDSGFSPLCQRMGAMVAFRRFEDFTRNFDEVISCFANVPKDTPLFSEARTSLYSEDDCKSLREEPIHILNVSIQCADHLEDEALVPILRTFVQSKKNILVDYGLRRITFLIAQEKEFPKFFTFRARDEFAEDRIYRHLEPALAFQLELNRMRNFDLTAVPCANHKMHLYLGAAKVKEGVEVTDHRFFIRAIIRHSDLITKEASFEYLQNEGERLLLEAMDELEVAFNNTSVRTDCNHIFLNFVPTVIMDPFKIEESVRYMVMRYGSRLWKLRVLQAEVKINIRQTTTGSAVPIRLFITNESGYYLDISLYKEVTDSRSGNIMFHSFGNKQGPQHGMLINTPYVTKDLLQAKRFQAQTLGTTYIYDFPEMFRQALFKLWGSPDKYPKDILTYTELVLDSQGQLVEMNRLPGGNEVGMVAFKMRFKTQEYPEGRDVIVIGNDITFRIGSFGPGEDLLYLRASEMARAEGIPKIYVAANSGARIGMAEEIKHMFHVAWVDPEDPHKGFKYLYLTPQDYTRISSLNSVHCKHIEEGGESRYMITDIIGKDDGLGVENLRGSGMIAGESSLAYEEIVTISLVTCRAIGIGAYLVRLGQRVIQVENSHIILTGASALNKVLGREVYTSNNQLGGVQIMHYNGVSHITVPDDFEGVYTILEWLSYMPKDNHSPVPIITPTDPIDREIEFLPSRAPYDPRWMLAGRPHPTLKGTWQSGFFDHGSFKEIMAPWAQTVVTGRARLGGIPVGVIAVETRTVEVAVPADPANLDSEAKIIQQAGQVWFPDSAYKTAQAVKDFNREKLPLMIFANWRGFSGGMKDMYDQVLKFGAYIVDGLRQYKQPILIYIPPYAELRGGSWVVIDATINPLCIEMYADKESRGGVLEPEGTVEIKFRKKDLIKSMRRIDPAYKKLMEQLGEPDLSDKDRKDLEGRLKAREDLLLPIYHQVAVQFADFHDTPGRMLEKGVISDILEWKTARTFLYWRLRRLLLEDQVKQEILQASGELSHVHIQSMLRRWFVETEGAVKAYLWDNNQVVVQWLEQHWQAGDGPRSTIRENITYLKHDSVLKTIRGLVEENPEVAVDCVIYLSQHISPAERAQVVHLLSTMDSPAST

| pIC50 | Molecule |
| --- | --- |
| 6.41 | CC(=O)N1CCc2cc(S(=O)(=O)N[C@H]3CC[C@H](C(=O)N[C@H](C)c4ccc(F)cc4)CC3)ccc21 [Example 106, (1r,4R)-4-(1-acetylindoline-5-sulfonamido)-N-((R)-1-(4-fluorophenyl)ethyl)cyclohexanecarboxamide] |
| 7.46 | C[C@@H](NC(=O)[C@H]1CC[C@H](NS(=O)(=O)c2ccc3c(c2)N(C)[C@@H](C(=O)O)CC3)CC1)c1ccc(F)cc1 [Example 251, (R)-7-(N-((1R,4R)-4-((R)-1-(4-fluorophenyl)ethylcarbamoyl)cyclohexyl)sulfamoyl)-1-methyl-1,2,3,4-tetrahydroquinoline-2-carboxylic acid] |
| 4.48 | O=C([C@H]1CC[C@H](NS(=O)(=O)c2cnc3ccccc3c2)CC1)N1CCCC1C(F)(F)F (stereo partly shown) [Example 48, N-((1r,4r)-4-(2-(trifluoromethyl)pyrrolidine-1-carbonyl)cyclohexyl)quinoline-3-sulfonamide] |
| 6.67 | CCOc1ccc2cc(S(=O)(=O)N[C@H]3CC[C@H](C(=O)N[C@H](CC(=O)O)c4ccccc4)CC3)ccc2n1 [Example 228, (R)-3-((1r,4R)-4-(2-ethoxyquinoline-6-sulfonamido)cyclohexanecarboxamido)-3-phenylpropanoic acid] |
| 7.19 | Cc1cn(C)c2ncc(S(=O)(=O)N[C@H]3CC[C@H](C(=O)N[C@H](C)c4ccc(F)cc4)CC3)cc12 [Example 17] |
| 5.77 | COCCNC(=O)[C@H]1CC[C@H](NS(=O)(=O)c2ccc3[nH]c(-c4ccccc4)nc3c2)CC1 [Example 634, (1r,4r)-N-(2-methoxyethyl)-4-(2-phenyl-1H-benzo[d]imidazole-5-sulfonamido)cyclohexanecarboxamide] |
| > 8.00 | C[C@H]1COCCN1C(=O)[C@H]1CC[C@H](NS(=O)(=O)c2ccc3c(Cl)c(-c4ccccc4)[nH]c3c2)CC1 [Example 467, 3-chloro-N-((1S,4r)-4-((S)-3-methylmorpholine-4-carbonyl)cyclohexyl)-2-phenyl-1H-indole-6-sulfonamide] |
| 6.19 | CC(C)OC(=O)c1ccc(NS(=O)(=O)c2ccc3[nH]c(Nc4ccc(Cl)cc4)nc3c2)cc1 [Example 529, isopropyl 4-(2-(4-chlorophenylamino)-1H-benzo[d]imidazole-5-sulfonamido)benzoate] |
| > 8.00 | C[C@@H](NC(=O)[C@H]1CC[C@H](NS(=O)(=O)c2ccc3[nH]c(-c4ccc(CN5CCN(C)CC5)cc4)nc3c2)CC1)c1ccccc1 [Example 576, (1r,4R)-4-(2-(4-((4-methylpiperazin-1-yl)methyl)phenyl)-1H-benzo[d]imidazole-5-sulfonamido)-N-((R)-1-phenylethyl)cyclohexanecarboxamide] |
| > 8.00 | C[C@@H](NC(=O)[C@H]1CC[C@H](NS(=O)(=O)c2ccc3[nH]c(Nc4ccc(N5CCN(C)CC5)cc4)nc3c2)CC1)c1ccccc1 [Example 606, (1r,4R)-4-(2-(4-(4-methylpiperazin-1-yl)phenylamino)-1H-benzo[d]imidazole-5-sulfonamido)-N-((R)-1-phenylethyl)cyclohexanecarboxamide] |
| 8.00 | CC(C)[C@H]1COCCN1C(=O)[C@H]1CC[C@H](NS(=O)(=O)c2ccc3cc(-c4ccccc4)n(C)c3c2)CC1 [Example 434, N-((1S,4r)-4-((S)-3-isopropylmorpholine-4-carbonyl)cyclohexyl)-1-methyl-2-phenyl-1H-indole-6-sulfonamide] |
| 7.70 | Cn1c(-c2ccccc2)c(Cl)c2ccc(S(=O)(=O)N[C@H]3CC[C@H](C(=O)N4CCCCC4)CC3)cc21 [Example 374, 3-chloro-1-methyl-2-phenyl-N-((1r,4r)-4-(piperidine-1-carbonyl)cyclohexyl)-1H-indole-6-sulfonamide] |
| 6.14 | O=C(Nc1ccc2ncccc2c1)[C@H]1CC[C@H](NS(=O)(=O)c2ccc3[nH]c(-c4ccccc4)nc3c2)CC1 [Example 647, (1r,4r)-4-(2-phenyl-1H-benzo[d]imidazole-5-sulfonamido)-N-(quinolin-6-yl)cyclohexanecarboxamide] |
| 7.70 | Cn1cc(C#N)c2cc(S(=O)(=O)N[C@H]3CC[C@H](C(=O)N[C@@H](c4ccccc4)C(C)(C)O)CC3)ccc21 [Example 89, (1r,4S)-4-(3-cyano-1-methyl-1H-indole-5-sulfonamido)-N-((S)-2-hydroxy-2-methyl-1-phenylpropyl)cyclohexanecarboxamide] |
| 5.75 | COC(=O)c1ccc(COC(=O)[C@H]2CC[C@H](NS(=O)(=O)c3ccc4nc(-c5ccccc5)[nH]c4c3)CC2)cc1 [Example 101, methyl 4-(((1r,4r)-4-(2-phenyl-1H-benzo[d]imidazole-6-sulfonamido)cyclohexanecarbonyloxy)methyl)benzoate] |
| 6.00 | CC(=O)c1ccc(-c2nc3ccc(S(=O)(=O)Nc4ccc(C(=O)OC(C)C)cc4)cc3[nH]2)cc1 [Example 495, isopropyl 4-(2-(4-acetylphenyl)-1H-benzo[d]imidazole-6-sulfonamido)benzoate] |
| 7.46 | C[C@@H]1CN(C(=O)[C@H]2CC[C@H](NS(=O)(=O)c3ccc4cc(-c5ccccc5)n(C)c4c3)CC2)C[C@H](C)O1 [Example 419, N-((1R,4r)-4-((2S,6R)-2,6-dimethylmorpholine-4-carbonyl)cyclohexyl)-1-methyl-2-phenyl-1H-indole-6-sulfonamide] |
| 7.39 | CC(C)OC(=O)c1ccc(NS(=O)(=O)c2ccc3[nH]c(Nc4ccc(S(N)(=O)=O)cc4)nc3c2)cc1 [Example 528, isopropyl 4-(2-(4-sulfamoylphenylamino)-1H-benzo[d]imidazole-5-sulfonamido)benzoate] |
| > 8.00 | COc1ccc(-c2cc3ccc(S(=O)(=O)N[C@H]4CC[C@H](C(=O)N5CCOC[C@@H]5C(C)C)CC4)cc3n2C)cc1 [Example 441, N-((1S,4r)-4-((S)-3-isopropylmorpholine-4-carbonyl)cyclohexyl)-2-(4-methoxyphenyl)-1-methyl-1H-indole-6-sulfonamide] |
| 6.78 | COCCOc1ccc(-c2cc3ccc(S(=O)(=O)N[C@H]4CC[C@H](C(=O)N[C@H](C)C(F)(F)F)CC4)cc3n2C)cc1 [Example 453, (1r,4R)-4-(2-(4-(2-methoxyethoxy)phenyl)-1-methyl-1H-indole-6-sulfonamido)-N-((R)-1,1,1-trifluoropropan-2-yl)cyclohexanecarboxamide] |
| 7.30 | CCC1CCc2cc(S(=O)(=O)N[C@H]3CC[C@H](C(=O)N[C@H](C)c4ccc(F)cc4)CC3)ccc2N1 (stereo partly drawn) [Example 77, (1r,4R)-4-(2-ethyl-1,2,3,4-tetrahydroquinoline-6-sulfonamido)-N-((R)-1-(4-fluorophenyl)ethyl)cyclohexanecarboxamide] |
| 7.04 | CCOC(=O)CCc1cn(C)c2ccc(S(=O)(=O)N[C@H]3CC[C@H](C(=O)N[C@H](C)c4ccc(F)cc4)CC3)cc12 [Example 487] |
| 6.12 | C[C@@H](NC(=O)[C@H]1CC[C@H](NS(=O)(=O)c2ccc3nc(N4CCN(C(=O)OC(C)(C)C)CC4)ccc3c2)CC1)c1ccc(F)cc1 [Example 232, tert-butyl 4-(6-(N-((1R,4r)-4-((R)-1-(4-fluorophenyl)ethylcarbamoyl)cyclohexyl)sulfamoyl)quinolin-2-yl)piperazine-1-carboxylate] |
| 6.54 | CCN(CC)c1ccc(Nc2nc3cc(S(=O)(=O)Nc4ccc(C(=O)OC(C)C)cc4)ccc3[nH]2)cc1 [Example 537, isopropyl 4-(2-(4-(diethylamino)phenylamino)-1H-benzo[d]imidazole-5-sulfonamido)benzoate] |
| 6.74 | CCOC(=O)CCc1cc2ccc(S(=O)(=O)N[C@H]3CC[C@H](C(=O)N4CCCC4c4ccc(F)cc4)CC3)cc2n1C (stereo partly shown) [Example 369, ethyl 3-(6-(N-((1r,4r)-4-(2-(4-fluorophenyl)pyrrolidine-1-carbonyl)cyclohexyl)sulfamoyl)-1-methyl-1H-indol-2-yl)propanoate] |
| 7.35 | CC(=O)Nc1ccc(-c2nc3ccc(S(=O)(=O)N[C@H]4CC[C@H](C(=O)OC(C)C)CC4)cc3[nH]2)cc1 [Example 8, (1r,4r)-isopropyl 4-(2-(4-acetamidophenyl)-1H-benzo[d]imidazole-5-sulfonamido)cyclohexanecarboxylate] |
| 4.54 | C[C@@H](NC(=O)[C@H]1CC[C@H](NC(=O)c2ccc3cc(-c4ccccc4)[nH]c3c2)CC1)c1ccc(F)cc1 [Example 115, N-((1R,4r)-4-((R)-1-(4-fluorophenyl)ethylcarbamoyl)cyclohexyl)-2-phenyl-1H-indole-6-carboxamide] |
| 6.21 | CCOC(=O)Cc1nc2cc(S(=O)(=O)N[C@H]3CC[C@H](C(=O)N[C@H](C)c4ccc(F)cc4)CC3)ccc2[nH]1 [Example 667, ethyl 2-(5-(N-((1R,4r)-4-((R)-1-(4-fluorophenyl)ethylcarbamoyl)cyclohexyl)sulfamoyl)-1H-benzo[d]imidazol-2-yl)acetate] |
| 6.62 | Cc1nc2ccc(S(=O)(=O)N[C@H]3CC[C@H](C(=O)N[C@H](C)c4ccc(F)cc4)CC3)cc2s1 [Example 660, (1r,4R)-N-((R)-1-(4-fluorophenyl)ethyl)-4-(2-methylbenzo[d]thiazole-6-sulfonamido)cyclohexanecarboxamide] |
| 5.40 | O=C(N[C@@H](c1ccccc1)C(F)(F)F)[C@H]1CC[C@H](NS(=O)(=O)c2ccc3[nH]c(-c4ccccc4)nc3c2)CC1 [Example 274, (1r,4S)-4-(2-phenyl-1H-benzo[d]imidazole-5-sulfonamido)-N-((S)-2,2,2-trifluoro-1-phenylethyl)cyclohexanecarboxamide] |

| Molecule | pIC50 |
| --- | --- |
| N-(4-(5-isopropyl-1,3,4-oxadiazol-2-yl)phenyl)-2-(4-morpholinophenyl)-1H-benzo[d]imidazole-5-sulfonamide [Example 591] | 5.95 |
